This note sets out measurements from PubChem BioAssay AID1421 (Emory University Molecular Libraries Screening Center, 2008).

SMILES strings stand for the structures. Activity calls are given as the source filed them. The rule behind the calls is not given here.

The target in the first assay is Prostaglandin E2 receptor EP2 subtype (Homo sapiens) (UniProt P43116). As to the kind of experiment: compounds shifting PGE2 potency at EP2 – cell-based, human EP2, PGE2 EC50 shift, dose response (AID 1421). The conditions noted are these: EP2-expressing cells, PGE2 EC50 shift by compound.
Prostaglandin E2 receptor EP2 subtype (Homo sapiens), sequence (P43116 whole entry, looked up): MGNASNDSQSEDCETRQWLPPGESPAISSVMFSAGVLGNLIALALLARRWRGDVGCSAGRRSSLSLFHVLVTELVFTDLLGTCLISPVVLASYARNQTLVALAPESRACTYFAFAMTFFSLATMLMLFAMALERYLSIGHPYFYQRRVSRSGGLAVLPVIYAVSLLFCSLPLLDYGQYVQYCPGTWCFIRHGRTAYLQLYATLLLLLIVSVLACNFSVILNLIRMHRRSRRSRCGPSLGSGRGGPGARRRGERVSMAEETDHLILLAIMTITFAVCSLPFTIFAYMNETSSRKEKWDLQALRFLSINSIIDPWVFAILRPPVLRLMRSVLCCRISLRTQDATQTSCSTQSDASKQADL
`COc1ccc(-c2cc(C(F)(F)F)nc(N3CCOCC3)n2)cc1OC`: the outcome was active.
Take `COC1(C)CC2C(CC1OC(=O)c1cc([N+](=O)[O-])cc([N+](=O)[O-])c1)C2(C)C` (stereo not drawn): the outcome was active.
Turning to `CCSc1nc2sc3c(c2c(=O)n1CC)CC(C)(C)OC3`, the result was active.
Consider `FC(F)(F)c1cc(-c2ccccc2)nc(N2CCOCC2)n1`, for which the result was active.
Turning to `Cc1ccc(O)c(C2=Nc3ccccc3N=C(c3cccs3)C2)c1`, the outcome was active.
On the same count and under the same terms, with `NC(=NCCC[C@H](N)C(=O)O)N[N+](=O)[O-]` the entry was “active”.
Take `CCC1COC(c2cccn2Cc2ccc(Cl)cc2)=N1` (stereo not drawn): the outcome was active.

The same assay, now with this note: EP2-expressing cells, PGE2 EC50 shift by compound; measured here: PGE2 EC50 at 6.7 uM compound.
With `COc1ccc(-c2cc(C(F)(F)F)nc(N3CCOCC3)n2)cc1OC`, the PGE2 EC50 with compound is 1.53 nM.
With `CCn1c(-c2ccccc2)c(C(=O)CCl)c2ccccc21`, the PGE2 EC50 with compound was found to be 1 nM.
On to `CCN(CC)P(=O)(Nc1ccccc1Br)c1ccc(N(C)C)cc1NC(=O)c1ccco1` (stereo not drawn), for which the PGE2 EC50 with compound amounted to 1.19 nM.
As for `O=c1[nH]c(=S)c2c(n1-c1ccccc1)CCC2`, the PGE2 EC50 with compound is 1.46 nM.
Turning to `O=c1[nH]c2ccc(Cl)cc2c(-c2ccccc2)c1N1CCN(c2ccccn2)CC1`, the PGE2 EC50 with compound turned out to be 1.64 nM.
`CCOC(=O)c1c(N)nn(C(=O)c2ccccc2)c1-c1ccccc1`: the PGE2 EC50 with compound stood at 2.88 nM.
On the same count and under the same terms, to `Cc1ccc(Cl)cc1NC(=S)N(Cc1ccco1)C(C)c1cccs1` (stereo not drawn) belongs 1.51 nM; to `CN(N=O)c1ccc(O)c(O)c1`, 1.26 nM.
Take `CCOC(=O)c1c(N)sc(-c2ccccc2)c1C`: the PGE2 EC50 with compound was found to be 2.56 nM.
In the case of `Cc1ccnc(NS(=O)(=O)c2cccs2)c1`, the PGE2 EC50 with compound amounted to 1.8 nM.
As for `CCC1Oc2ccccc2N(Cc2ccccc2C)C1=O` (stereo not drawn), the PGE2 EC50 with compound is 2.7 nM.
On the same count and under the same terms, with `CCCc1cc(-c2nc(N)ncc2-c2ccc3c(c2)OCCCO3)c(O)cc1OC` the figure was 0.86 nM.
As for `C/C(=C\c1ccc(C(=O)O)cc1)c1ccc2c(c1)C(C)(C)CCC2(C)C`, the PGE2 EC50 with compound was found to be 0.79 nM.
For the compound `COC1(C)CC2C(CC1OC(=O)c1cc([N+](=O)[O-])cc([N+](=O)[O-])c1)C2(C)C` (stereo not drawn), the PGE2 EC50 with compound came out at 2.79 nM.
On the same count and under the same terms, with `COc1cnc(N(C)C)nc1Sc1cccc(Cl)c1` the figure was 1.13 nM.
The same measure, in the same setting: to `Fc1ccc(C(c2ccc(F)cc2)N2CCN(C/C=C/c3ccccc3)CC2)cc1` belongs 1.19 nM; to `COc1ccc(C(=O)NCC(=O)n2nc(C)cc2C)cc1OC`, 1.6 nM.
With `O=c1n(Cc2ccccc2F)c2ccccc2n1Cc1ccccc1F`, the PGE2 EC50 with compound turned out to be 1.01 nM.
In the case of `CCc1ccc(C2=Nn3c(nnc3-c3cccs3)SC2)cc1`, the PGE2 EC50 with compound turned out to be 1.43 nM.
Same read-out and setting: to `CSc1nc(Oc2ccccc2)c2sccc2n1` belongs 0.93 nM; to `Cc1cccc(C)c1N1CCN(c2ccc3nnc(C(F)(F)F)n3n2)CC1`, 0.52 nM.
For the compound `CCSc1nc2sc3c(c2c(=O)n1CC)CC(C)(C)OC3`, the PGE2 EC50 with compound was determined as 0.96 nM.
`COc1ccccc1CN(C)CC(=O)Nc1ccccc1-c1ccccc1`: the PGE2 EC50 with compound is 1.43 nM.
Turning to `CCOc1ccc2cc(C#N)c(SCC(=O)NC(C)CC)nc2c1` (stereo not drawn), the PGE2 EC50 with compound amounted to 1.36 nM.
For the compound `O=C(CN1CCCCCC1)Nc1ccccc1Oc1ccccc1`, the PGE2 EC50 with compound turned out to be 0.96 nM.
On to `FC(F)(F)c1cc(-c2ccccc2)nc(N2CCOCC2)n1`, for which the PGE2 EC50 with compound was 1.59 nM.
With `CCOC(=O)C1=C(N)OC2=C(C(=O)CC(C)(C)C2)C1c1ccc(CC)s1` (stereo not drawn), the PGE2 EC50 with compound was found to be 0.96 nM.
In the case of `c1ccc(Cn2c(-c3ccccc3)nc3nc4ccccc4nc32)cc1`, the PGE2 EC50 with compound came to 1.08 nM.
On to `Cc1ccc(O)c(C2=Nc3ccccc3N=C(c3cccs3)C2)c1`, for which the PGE2 EC50 with compound came out at 1.17 nM.
In the case of `CN(C)Cc1ccc(F)cc1Sc1cc(Cl)ccc1Cl`, the PGE2 EC50 with compound amounted to 0.77 nM.
Same read-out and setting: to `CCCCOc1ccccc1NC(=O)c1scc2c1OCCO2` belongs 0.32 nM.
The same measure, in the same setting: with `CN(Cc1c(C(=O)N2CCc3ccccc3C2)nc2ccc(Cl)cn12)C(C1CC1)C1CC1` the figure was 0.9 nM; with `NC(=NCCC[C@H](N)C(=O)O)N[N+](=O)[O-]`, 1.93 nM.
In the case of `CCC1COC(c2cccn2Cc2ccc(Cl)cc2)=N1` (stereo not drawn), the PGE2 EC50 with compound is 1.27 nM.
Consider `CN(c1ccccc1)C1CCCCC1NS(=O)(=O)c1ccc(Cl)cc1` (stereo not drawn), for which the PGE2 EC50 with compound is 2.43 nM.
In the case of `O=C(Nc1ccccc1Oc1ccccc1)c1cnccn1`, the PGE2 EC50 with compound amounted to 0.78 nM.
